The assay has as its target T1, human HSL (Homo sapiens, UniProt Q05469).
T1 construct: generate a full length human HSL ORF with a 3′-His6 tag; made in house; host or cells: High 5 insect cells (baculovirus, pFast-BAC)
T1 sequence (Q05469 1-1076): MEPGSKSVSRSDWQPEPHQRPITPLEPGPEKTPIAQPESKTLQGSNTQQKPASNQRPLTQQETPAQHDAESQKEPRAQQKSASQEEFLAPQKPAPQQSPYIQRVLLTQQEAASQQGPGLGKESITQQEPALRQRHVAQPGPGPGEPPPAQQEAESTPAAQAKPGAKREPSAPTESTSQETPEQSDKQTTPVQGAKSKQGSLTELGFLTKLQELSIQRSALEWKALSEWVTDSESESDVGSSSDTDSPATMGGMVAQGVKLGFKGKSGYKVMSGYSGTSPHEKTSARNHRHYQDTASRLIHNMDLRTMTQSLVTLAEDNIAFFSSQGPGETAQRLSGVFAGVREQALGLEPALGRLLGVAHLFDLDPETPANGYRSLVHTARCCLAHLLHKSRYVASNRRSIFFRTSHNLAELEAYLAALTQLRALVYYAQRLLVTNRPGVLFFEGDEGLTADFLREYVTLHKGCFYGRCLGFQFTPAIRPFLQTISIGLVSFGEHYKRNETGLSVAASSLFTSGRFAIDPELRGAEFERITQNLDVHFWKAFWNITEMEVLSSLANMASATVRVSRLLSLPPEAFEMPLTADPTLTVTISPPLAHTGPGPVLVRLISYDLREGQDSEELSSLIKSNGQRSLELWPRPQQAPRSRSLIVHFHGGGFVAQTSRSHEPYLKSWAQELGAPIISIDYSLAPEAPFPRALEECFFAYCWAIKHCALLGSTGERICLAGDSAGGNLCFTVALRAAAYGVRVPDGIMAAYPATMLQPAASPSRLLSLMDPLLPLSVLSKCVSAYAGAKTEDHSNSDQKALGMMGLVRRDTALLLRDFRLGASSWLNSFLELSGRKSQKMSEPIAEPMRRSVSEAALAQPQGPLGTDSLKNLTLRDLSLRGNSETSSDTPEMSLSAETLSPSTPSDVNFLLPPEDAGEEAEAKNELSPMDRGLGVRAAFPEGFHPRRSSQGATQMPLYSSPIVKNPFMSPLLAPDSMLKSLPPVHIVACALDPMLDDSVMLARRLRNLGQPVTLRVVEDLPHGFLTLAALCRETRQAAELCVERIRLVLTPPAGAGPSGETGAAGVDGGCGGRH
The assay is described as follows: Human Hormone-Sensitive Lipase (HSL) enzyme inhibition assay (colorimetric, DMPT substrate). The settings on record: human full length HSL-His6, 2,3-dimercapto-1-propanol tributyrate substrate, 37° C. 20 minutes, absorbance at 405 nm; read-out: HSL hum IC50. It counts as biochemical. The gist of the method:
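Full-length human HSL with C-terminal His6, expressed in baculovirus-infected High 5 cells and Ni-NTA purified, was added (15 ug/ml stock) to 1.5 mM DMPT in 100 mM MOPS pH 7.2, 0.2 mg/ml fatty acid-free BSA containing compound. After 20 min at 37 °C, DTNB with SDS/Triton X-100 was added; A405 read after 15 min at RT.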

Structures are written as SMILES.

For orientation: IC50 means the concentration needed to halve the response being measured. `CC(C)Oc1ccc(N2CC[C@]3(CC[C@@](O)(c4ccsc4)CC3)C2=O)cc1` [Example 211, (5α,8α)-8-hydroxy-2-(4-isopropoxyphenyl)-8-(thiophen-3-yl)-2-aza-spiro[4.5]decan-1-one]: the IC50 was found to be 10 nM.
Regarding `CC(C)Oc1ccc(N2CC[C@]3(CC[C@@](O)(c4c(Br)nnn4C)CC3)C2=O)cc1` [Example 212, (5α,8α)-8-(5-Bromo-3-methyl-3H-[1,2,3]triazol-4-yl)-8-hydroxy-2-(4-isopropoxy-phenyl)-2-aza-spiro[4.5]decan-1-one], the IC50 is 10 nM.
For the compound `CC(C)Oc1ccc(N2CC[C@]3(CC[C@@](O)(c4cnnn4C)CC3)C2=O)cc1` [Example 213], the IC50 stood at 390 nM.
Regarding `Cn1nnc(Br)c1[C@]1(O)CC[C@]2(CCN(c3ccc(C(F)(F)F)cc3)C2=O)CC1` [Example 214, (5α,8α)-8-(5-Bromo-3-methyl-3H-[1,2,3]triazol-4-yl)-8-hydroxy-2-(4-trifluoromethyl-phenyl)-2-aza-spiro[4.5]decan-1-one], the IC50 worked out at 50 nM.
For the compound `Cn1nncc1[C@]1(O)CC[C@]2(CCN(c3ccc(C(F)(F)F)cc3)C2=O)CC1` [Example 215, (5α,8α)-8-Hydroxy-8-(3-methyl-3H-[1,2,3]triazol-4-yl)-2-(4-trifluoromethyl-phenyl)-2-aza-spiro[4.5]decan-1-one], the IC50 worked out at 590 nM.
Consider `CC(C)c1ccc(N2CC[C@]3(CC[C@@](O)(COCC(F)(F)F)CC3)C2=O)cc1` [Example 216, (5α,8α)-8-hydroxy-2-(4-isopropylphenyl)-8-((2,2,2-trifluoroethoxy)methyl)-2-aza-spiro[4.5]decan-1-one], for which the IC50 turned out to be 10 nM.
As for `CC(C)Oc1ccc(N2CC[C@]3(CC[C@@](O)(c4ccn(C)n4)CC3)C2=O)cc1` [Example 217, (5α,8α)-8-hydroxy-2-(4-isopropoxyphenyl)-8-(1-methyl-1H-pyrazol-3-yl)-2-aza-spiro[4.5]decan-1-one], the half-maximal inhibitory concentration (IC50) turned out to be 50 nM.
Turning to `COC[C@]1(O)CC[C@]2(CCN(c3ccc(C(C)C)cc3)C2=O)CC1` [Example 218, (5α,8α)-8-hydroxy-2-(4-isopropylphenyl)-8-(methoxymethyl)-2-aza-spiro[4.5]decan-1-one], the IC50 was determined as 40 nM.
Regarding `O=C1N(c2ccc(C(F)(F)F)cc2)CC[C@]12CC[C@@](O)(COCC(F)(F)F)CC2` [Example 219, (5α,8α)-8-hydroxy-8-((2,2,2-trifluoroethoxy)methyl)-2-(4-(trifluoromethyl)phenyl)-2-aza-spiro[4.5]decan-1-one], the IC50 was 11 nM.
On to `Cc1cc(C[C@]2(O)CC[C@]3(CCN(c4ccc(OC(C)C)cc4)C3=O)CC2)no1` [Example 220], for which the IC50 was 20 nM.
As to `Cc1cc(C[C@]2(O)CC[C@@]3(CCN(c4ccc(OC(C)C)cc4)C3=O)CC2)no1` [Example 221, (5α,8β)-8-hydroxy-2-(4-isopropoxyphenyl)-8-((5-methylisoxazol-3-yl)methyl)-2-aza-spiro[4.5]decan-1-one], the IC50 stood at 1160 nM.
To `C=Cc1nnn(C)c1[C@]1(O)CC[C@]2(CCN(c3ccc(OC(C)C)cc3)C2=O)CC1` [Example 222, (5α,8α)-8-hydroxy-2-(4-isopropoxyphenyl)-8-(1-methyl-4-vinyl-1H-1,2,3-triazol-5-yl)-2-aza-spiro[4.5]decan-1-one] belongs 103 nM.
To `COC[C@]1(O)CC[C@]2(CCN(c3ccc(C4CC4)cc3)C2=O)CC1` [Example 223, (5α,8α)-2-(4-Cyclopropyl-phenyl)-8-hydroxy-8-methoxymethyl-2-aza-spiro[4.5]decan-1-one] belongs 50 nM.
On to `CCc1ccc(N2CC[C@]3(CC[C@@](O)(COC)CC3)C2=O)cc1` [Example 224, (5α,8α)-2-(4-Ethyl-phenyl)-8-hydroxy-8-methoxymethyl-2-aza-spiro[4.5]decan-1-one], for which the 50% inhibitory concentration (IC50) is 150 nM.
In the case of `CCOC[C@]1(O)CC[C@]2(CCN(c3ccc(CC)cc3)C2=O)CC1` [Example 225, (5α,8α)-8-Ethoxymethyl-2-(4-ethyl-phenyl)-8-hydroxy-2-aza-spiro[4.5]decan-1-one], the IC50 worked out at 60 nM.
With `CCCOC[C@]1(O)CC[C@]2(CCN(c3ccc(CC)cc3)C2=O)CC1` [Example 226, (5α,8α)-2-(4-Ethyl-phenyl)-8-hydroxy-8-propoxymethyl-2-aza-spiro[4.5]decan-1-one], the IC50 was determined as 20 nM.
As to `CCc1ccc(N2CC[C@]3(CC[C@](O)(COc4ccccc4)CC3)C2=O)cc1` [Example 227, (5α,8β)-2-(4-Ethyl-phenyl)-8-hydroxy-8-phenoxymethyl-2-aza-spiro[4.5]decan-1-one], the IC50 is 700 nM.
Take `CCc1ccc(N2CC[C@]3(CC[C@@](O)(COc4ccccc4)CC3)C2=O)cc1` [Example 228, (5α,8α)-2-(4-Ethyl-phenyl)-8-hydroxy-8-phenoxymethyl-2-aza-spiro[4.5]decan-1-one]: the IC50 worked out at 20 nM.
As for `CCc1ccc(N2CC[C@]3(CC[C@@](O)(COCCOC)CC3)C2=O)cc1` [Example 229, (5α,8α)-2-(4-Ethyl-phenyl)-8-hydroxy-8-(2-methoxy-ethoxymethyl)-2-aza-spiro[4.5]decan-1-one], the IC50 was determined as 130 nM.
As to `CCc1ccc(N2CC[C@]3(CC[C@](O)(COCC(F)(F)F)CC3)C2=O)cc1` [Example 230, (5α,8β)-2-(4-Ethyl-phenyl)-8-hydroxy-8-(2,2,2-trifluoro-ethoxymethyl)-2-aza-spiro[4.5]decan-1-one], the IC50 was found to be 400 nM.
Take `CCc1ccc(N2CC[C@]3(CC[C@@](O)(COCC(F)(F)F)CC3)C2=O)cc1` [Example 231, (5α,8α)-2-(4-Ethyl-phenyl)-8-hydroxy-8-(2,2,2-trifluoro-ethoxymethyl)-2-aza-spiro[4.5]decan-1-one]: the IC50 was found to be 20 nM.
On to `O=C1N(c2ccc(OCC(F)(F)F)cc2)CC[C@]12CC[C@](O)(COCC(F)(F)F)CC2` [Example 232, (5α,8β)-8-Hydroxy-8-(2,2,2-trifluoro-ethoxymethyl)-2-[4-(2,2,2-trifluoro-ethoxy)-phenyl]-2-aza-spiro[4.5]decan-1-one], for which the IC50 was 290 nM.
For `O=C1N(c2ccc(OCC(F)(F)F)cc2)CC[C@]12CC[C@@](O)(COCC(F)(F)F)CC2` [Example 233, (5α,8α)-8-Hydroxy-8-(2,2,2-trifluoro-ethoxymethyl)-2-[4-(2,2,2-trifluoro-ethoxy)-phenyl]-2-aza-spiro[4.5]decan-1-one], the half-inhibitory concentration (IC50) was 20 nM.
With `CCOC[C@]1(O)CC[C@]2(CCN(c3ccc(OCC(F)(F)F)cc3)C2=O)CC1` [Example 234, (5α,8α)-8-Ethoxymethyl-8-hydroxy-2-[4-(2,2,2-trifluoro-ethoxy)phenyl]-2-aza-spiro[4.5]decan-1-one], the IC50 was 40 nM.
Take `CCCOC[C@]1(O)CC[C@@]2(CCN(c3ccc(OCC(F)(F)F)cc3)C2=O)CC1` [Example 235, (5α,8β)-8-Hydroxy-8-propoxymethyl-2-[4-(2,2,2-trifluoro-ethoxy)-phenyl]-2-aza-spiro[4.5]decan-1-one]: the IC50 was found to be 630 nM.
As to `CCCOC[C@]1(O)CC[C@]2(CCN(c3ccc(OCC(F)(F)F)cc3)C2=O)CC1` [Example 236, (5α,8α)-8-Hydroxy-8-propoxymethyl-2-[4-(2,2,2-trifluoro-ethoxy)-phenyl]-2-aza-spiro[4.5]decan-1-one], the IC50 was 20 nM.
With `CCCCOC[C@]1(O)CC[C@@]2(CCN(c3ccc(OCC(F)(F)F)cc3)C2=O)CC1` [Example 237, (5α,8β)-8-Butoxymethyl-8-hydroxy-2-[4-(2,2,2-trifluoro-ethoxy)-phenyl]-2-aza-spiro[4.5]decan-1-one], the IC50 was determined as 270 nM.
In the case of `CCCCOC[C@]1(O)CC[C@]2(CCN(c3ccc(OCC(F)(F)F)cc3)C2=O)CC1` [Example 238, (5α,8α)-8-Butoxymethyl-8-hydroxy-2-[4-(2,2,2-trifluoro-ethoxy)-phenyl]-2-aza-spiro[4.5]decan-1-one], the IC50 stood at 20 nM.
To `O=C1N(c2ccc(OCC(F)(F)F)cc2)CC[C@]12CC[C@](O)(COc1ccccc1)CC2` [Example 239, (5α,8β)-8-Hydroxy-8-phenoxymethyl-2-[4-(2,2,2-trifluoro-ethoxy)-phenyl]-2-aza-spiro[4.5]decan-1-one] belongs 140 nM.

For the origin of these results see patent US8440710B2, “HSL inhibitors useful in the treatment of diabetes” (Hoffmann-La Roche Inc., priority 2009, dated 2013).
